# Results from patent publication US20090220599A1, “Antifungal formulation and manufacturing method thereof” (Industrial Technology Research Institute, priority 2003, published 2009).
# Key:
# [1] = UV-Vis absorbance ratio of sterol/AmB (affinity comparison); type: binding; settings: for affinity ordering of these three sterols to AmB: FIG. 1, molar ratios from 1:1 to 20:1
# Description: (1) Adding 23.1 mg Amphotericin B (AmB) to 5 ml dimethyl sulfoxide (DMSO), and then adding in 495 ml ionized water to prepare a mixture, and taking 10 ml volume out of the mixture; diluting the 10 volume with 30 ml 1% dimethyl sulfoxide (DMSO) solution to prepare 12.5 μM Amphotericin B (AmB) aqueous solution. (2) Adding 13 g n-propanol to 187 ml ionized water to prepare 6.5% n-propanol aqueous solution. (3) Adding 28.9 mg cholesterol to 19.5 g n-propanol, shaking them to completely dissolve cholesterol in n-propanol, and then adding in 280.5 gram ionized water to prepare 250 μM cholesterol aqueous solution. (4) Adding […] stigmasterol to 19.5 g n-propanol, shaking them to completely dissolve stigmasterol in n-propanol, and then adding in 280.5 gram ionized water to prepare 250 μM stigmasterol aqueous solution. (5) Adding 29.7 mg ergosterol to 19.5 g n-propanol, shaking them to completely dissolve ergosterol in n-propanol, and then adding in 280.5 gram ionized water to prepare 250 μM ergosterol aqueous solution. (6) Mixing 10 ml 12.5 μM AmB aqueous solution with 10 ml 250 μM cholesterol aqueous solution. The molar ratio of AmB/cholesterol is 1/20. The UV-Vis absorbance ratio A415nm/A350nm of AmB/cholesterol is 0.61 (scanning from 300 nm to 450 nm). (7) Mixing 10 ml 12.5 μM AmB aqueous solution, 5 ml 6.5% n-propanol aqueous solution and 5 ml 250 μM cholesterol aqueous solution. The molar ratio of AmB/cholesterol is 1/10. The UV-Vis absorbance ratio A415nm/A350nm of AmB/cholesterol is 0.59. (8) Mixing 10 ml 12.5 μM AmB aqueous solution, 7.5 ml 6.5% n-propanol aqueous solution and 2.5 ml 250 μM cholesterol aqueous solution. The molar ratio of AmB/cholesterol is 1/5. The UV-Vis absorbance ratio A415nm/A350nm of AmB/cholesterol is 0.60. (9) Mixing 10 ml 12.5 μM AmB aqueous solution, 9.5 ml 6.5% n-propanol aqueous solution and 0.5 ml 250 μM cholesterol aqueous solution. The molar ratio of AmB/cholesterol is 1/1. The UV-Vis absorbance ratio A415nm/A350nm of AmB/cholesterol is 0.49. (10) Measuring absorbance ratio of stigmasterol/AmB and ergosterol/AmB by the procedures with the same, the result is shown in FIG. 1.
# (§1) Using UV-Vis spectroscopy to measure UV-Vis absorbance ratios of cholesterol-PEG600, stigmasterol-PEG600 and ergosterol-PEG600 prepared in Example I to AmB and UV-Vis absorbance ratios of cholesterol, stigmasterol and ergosterol to AmB. The results are as shown in FIG. 1 and FIG. 2, in which FIG. 1 is a curve diagram of A415nm/A350nm vs. sterol/AmB and FIG. 2 is a curve diagram of A415nm/A350nm vs. sterol-PEG600/AmB.
# [2] = UV-Vis absorbance ratio of sterol-PEG/AmB (affinity comparison); type: binding; settings: for affinity ordering of sterol-PEG to AmB / variation of the UV-Vis absorbance ratios A415nm/A350nm: FIG. 2; for variation of the UV-Vis absorbance ratios A415nm/A350nm: for any mixing molar ratios with AmB
# Description: (1) Adding 23.1 mg AmB aqueous solution to 5 ml dimethyl sulfoxide (DMSO), and then adding in 495 ml ionized water to prepare a mixture. Taking 10 ml volume out of the mixture, and diluting the 10 ml volume with 30 ml 1% dimethyl sulfoxide (DMSO) aqueous solution to prepare 12.5 μM AmB aqueous solution. (2) Adding 13 g n-propanol to 187 ml ionized water to prepare 6.5% n-propanol aqueous solution. (3) Adding 24.4 mg cholesterol-PEG600 to 6.5 g n-propanol, shaking them to completely dissolve cholesterol-PEG600 in n-propanol, and then adding in 93.5 g ionized water to prepare 250 μM cholesterol-PEG600 aqueous solution. (4) Adding […] stigmasterol-PEG600 to 6.5 g n-propanol, shaking them to completely dissolve stigmasterol-PEG600 in n-propanol, and then adding in 93.5 g ionized water to prepare 250 μM stigmasterol-PEG600 aqueous solution. (5) Adding 24.6 mg ergosterol-PEG600 to 6.5 g n-propanol, shaking them to completely dissolve ergosterol-PEG600 in n-propanol, and then adding in 93.5 g ionized water to prepare 250 μM ergosterol-PEG600 aqueous solution. (6) Mixing 10 ml 12.5 μM AmB and 10 ml 250 μM cholesterol-PEG600, the molar ratio of AmB/cholesterol-PEG600 is 1/20. The UV-Vis absorbance ratio A415nm/A350nm of AmB/cholesterol is 0.40 (scanning from 300 nm to 450 nm). (7) Mixing 10 ml 12.5 μM AmB, 5 ml 6.5% n-propanol and 5 ml 250 μM cholesterol-PEG600. The molar ratio of AmB/cholesterol-PEG600 is 1/10. The UV-Vis absorbance ratio of A415nm/A350nm of AmB/cholesterol-PEG600 is 0.44. (8) Mixing 10 ml 12.5 μM AmB, 7.5 ml 6.5% n-propanol and 2.5 ml 250 μM cholesterol-PEG600. The molar ratio of AmB/cholesterol-PEG600 is 1/5. The UV-Vis absorbance ratio of A415nm/A350nm of AmB/cholesterol-PEG600 is 0.48. (9) Mixing 10 ml 12.5 μM AmB, 9.5 ml 6.5% n-propanol and 0.5 ml 250 μM cholesterol-PEG600. The molar ratio of AmB/cholesterol-PEG600 is 1/1. The UV-Vis absorbance ratio of A415nm/A350nm of AmB/cholesterol-PEG600 is 0.48. (10) Measuring absorbance ratio of stigmasterol-PEG600/AmB and ergosterol-PEG600/AmB by the procedures with the same, the result is shown in FIG. 2.
# as §1
# [3] = background statement; cited from earlier work
Compound,affinity ordering of these three sterols to AmB [1],affinity ordering of sterol-PEG to AmB [2],variation of the UV-Vis absorbance ratios A415nm/A350nm [2],further results
CC(C)CCC[C@@H](C)[C@H]1CC[C@H]2[C@@H]3CC=C4C[C@@H](O)CC[C@]4(C)[C@H]3CC[C@]12C [cholesterol],cholesterol<stigmasterol<ergosterol,,,"UV-Vis absorbance ratio A415nm/A350nm ([1]; molar ratio of AmB/cholesterol 1/1): 0.49; UV-Vis absorbance ratio A415nm/A350nm ([1]; molar ratio of AmB/cholesterol 1/5): 0.60; UV-Vis absorbance ratio A415nm/A350nm ([1]; molar ratio of AmB/cholesterol 1/10): 0.59; UV-Vis absorbance ratio A415nm/A350nm ([1]; molar ratio of AmB/cholesterol 1/20, scanning from 300 nm to 450 nm): 0.61; UV-Vis absorbance ratio A415nm/A350nm ([2]; molar ratio of AmB/cholesterol-PEG600 1/20, scanning from 300 nm to 450 nm): 0.40"
cholesterol-PEG600,,ergosterol-PEG600>stigmasterol-PEG600>cholesterol-PEG600,insignificant,UV-Vis absorbance ratio A415nm/A350nm ([2]; molar ratio of AmB/cholesterol-PEG600 1/1): 0.48; UV-Vis absorbance ratio A415nm/A350nm ([2]; molar ratio of AmB/cholesterol-PEG600 1/5): 0.48; UV-Vis absorbance ratio A415nm/A350nm ([2]; molar ratio of AmB/cholesterol-PEG600 1/10): 0.44
CC[C@H](/C=C/[C@@H](C)[C@H]1CC[C@H]2[C@@H]3CC=C4C[C@@H](O)CC[C@]4(C)[C@H]3CC[C@]12C)C(C)C [stigmasterol],cholesterol<stigmasterol<ergosterol,,,
ergosterol-PEG600,,ergosterol-PEG600>stigmasterol-PEG600>cholesterol-PEG600,insignificant,
CC(C)[C@@H](C)/C=C/[C@@H](C)[C@H]1CC[C@H]2C3=CC=C4C[C@@H](O)CC[C@]4(C)[C@H]3CC[C@]12C [ergosterol],cholesterol<stigmasterol<ergosterol,,,
stigmasterol-PEG600,,ergosterol-PEG600>stigmasterol-PEG600>cholesterol-PEG600,insignificant,
C[C@@H]1[C@H](O)[C@@H](C)/C=C/C=C/C=C/C=C/C=C/C=C/C=C/[C@H](O[C@@H]2O[C@H](C)[C@@H](O)[C@H](N)[C@@H]2O)C[C@@H]2O[C@](O)(C[C@@H](O)C[C@@H](O)[C@H](O)CC[C@@H](O)C[C@@H](O)CC(=O)O[C@H]1C)C[C@H](O)[C@H]2C(=O)O [Amphotericin B],,,,affinity for ergosterol of fungal cells compared with that for cholesterols of mammal [3]: ten times better
